Data set [1] is described as follows: Lipophilicity, log P of compound by shake flask method. Format: physicochemical. Conditions: octanol/water.
In data set [2] the target is Hepatocyte growth factor receptor (Homo sapiens, UniProt P08581). Description: Inhibition of recombinant c-Met (unknown origin) using poly (Glu, Tyr) 4:1 as substrate incubated for 60 mins by ELISA. On the technique in general: ELISA stands for enzyme-linked immunosorbent assay.
Data set [3] addresses T1, Vascular endothelial growth factor receptor 2 (Homo sapiens, UniProt P35968). In words: Inhibition of recombinant VEGFR2 (unknown origin) using poly (Glu, Tyr) 4:1 as substrate incubated for 60 mins by ELISA.
The next data set in a line: cells. Conditions: Mus musculus, BaF3, 72 h.
A further data set concerns HUVEC. In words: Antiproliferative activity against recombinant human VEGF-stimulated HUVEC after 120 hrs by CCK8 assay. Format: functional, cell-based. (Formazan colour is commonly taken as a measure of viable cells.)
The target in data set [4] is T1, Vascular endothelial growth factor receptor 2. In words: Inhibition of VEGFR2 (unknown origin).

Some results are limits rather than exact numbers.

T1 sequence (P35968 whole entry): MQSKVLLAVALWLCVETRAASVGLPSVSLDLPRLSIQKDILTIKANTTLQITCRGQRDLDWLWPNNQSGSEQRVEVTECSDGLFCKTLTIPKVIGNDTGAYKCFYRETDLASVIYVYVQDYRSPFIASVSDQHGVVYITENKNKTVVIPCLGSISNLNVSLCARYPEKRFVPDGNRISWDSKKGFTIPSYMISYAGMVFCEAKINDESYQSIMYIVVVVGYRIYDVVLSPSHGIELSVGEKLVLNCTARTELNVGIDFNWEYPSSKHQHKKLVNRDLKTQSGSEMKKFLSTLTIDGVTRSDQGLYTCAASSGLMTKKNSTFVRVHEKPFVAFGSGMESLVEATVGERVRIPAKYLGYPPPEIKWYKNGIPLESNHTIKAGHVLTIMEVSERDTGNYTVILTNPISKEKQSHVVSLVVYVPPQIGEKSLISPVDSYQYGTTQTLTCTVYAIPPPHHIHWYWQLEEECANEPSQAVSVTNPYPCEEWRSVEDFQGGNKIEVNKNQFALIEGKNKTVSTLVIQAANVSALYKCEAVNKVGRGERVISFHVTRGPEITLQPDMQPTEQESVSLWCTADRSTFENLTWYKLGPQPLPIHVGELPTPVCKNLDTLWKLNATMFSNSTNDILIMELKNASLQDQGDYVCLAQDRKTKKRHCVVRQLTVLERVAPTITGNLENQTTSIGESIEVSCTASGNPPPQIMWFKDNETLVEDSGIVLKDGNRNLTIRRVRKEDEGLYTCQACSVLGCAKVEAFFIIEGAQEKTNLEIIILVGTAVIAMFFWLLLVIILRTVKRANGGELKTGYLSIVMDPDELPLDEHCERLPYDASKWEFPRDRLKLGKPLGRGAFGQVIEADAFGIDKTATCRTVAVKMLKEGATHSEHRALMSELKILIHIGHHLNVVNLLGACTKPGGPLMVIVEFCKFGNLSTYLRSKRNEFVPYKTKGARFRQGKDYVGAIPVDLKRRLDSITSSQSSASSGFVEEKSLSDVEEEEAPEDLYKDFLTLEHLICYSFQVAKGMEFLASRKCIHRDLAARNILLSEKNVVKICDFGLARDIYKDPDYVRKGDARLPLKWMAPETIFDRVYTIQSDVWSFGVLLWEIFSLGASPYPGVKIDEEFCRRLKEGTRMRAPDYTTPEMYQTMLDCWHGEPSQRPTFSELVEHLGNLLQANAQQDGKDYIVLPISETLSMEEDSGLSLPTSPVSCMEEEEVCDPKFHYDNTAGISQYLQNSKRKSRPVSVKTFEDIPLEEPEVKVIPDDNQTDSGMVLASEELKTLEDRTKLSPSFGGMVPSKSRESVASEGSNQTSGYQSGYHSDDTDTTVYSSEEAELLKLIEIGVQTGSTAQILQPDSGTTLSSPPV
Sequence of Hepatocyte growth factor receptor (P08581 whole entry): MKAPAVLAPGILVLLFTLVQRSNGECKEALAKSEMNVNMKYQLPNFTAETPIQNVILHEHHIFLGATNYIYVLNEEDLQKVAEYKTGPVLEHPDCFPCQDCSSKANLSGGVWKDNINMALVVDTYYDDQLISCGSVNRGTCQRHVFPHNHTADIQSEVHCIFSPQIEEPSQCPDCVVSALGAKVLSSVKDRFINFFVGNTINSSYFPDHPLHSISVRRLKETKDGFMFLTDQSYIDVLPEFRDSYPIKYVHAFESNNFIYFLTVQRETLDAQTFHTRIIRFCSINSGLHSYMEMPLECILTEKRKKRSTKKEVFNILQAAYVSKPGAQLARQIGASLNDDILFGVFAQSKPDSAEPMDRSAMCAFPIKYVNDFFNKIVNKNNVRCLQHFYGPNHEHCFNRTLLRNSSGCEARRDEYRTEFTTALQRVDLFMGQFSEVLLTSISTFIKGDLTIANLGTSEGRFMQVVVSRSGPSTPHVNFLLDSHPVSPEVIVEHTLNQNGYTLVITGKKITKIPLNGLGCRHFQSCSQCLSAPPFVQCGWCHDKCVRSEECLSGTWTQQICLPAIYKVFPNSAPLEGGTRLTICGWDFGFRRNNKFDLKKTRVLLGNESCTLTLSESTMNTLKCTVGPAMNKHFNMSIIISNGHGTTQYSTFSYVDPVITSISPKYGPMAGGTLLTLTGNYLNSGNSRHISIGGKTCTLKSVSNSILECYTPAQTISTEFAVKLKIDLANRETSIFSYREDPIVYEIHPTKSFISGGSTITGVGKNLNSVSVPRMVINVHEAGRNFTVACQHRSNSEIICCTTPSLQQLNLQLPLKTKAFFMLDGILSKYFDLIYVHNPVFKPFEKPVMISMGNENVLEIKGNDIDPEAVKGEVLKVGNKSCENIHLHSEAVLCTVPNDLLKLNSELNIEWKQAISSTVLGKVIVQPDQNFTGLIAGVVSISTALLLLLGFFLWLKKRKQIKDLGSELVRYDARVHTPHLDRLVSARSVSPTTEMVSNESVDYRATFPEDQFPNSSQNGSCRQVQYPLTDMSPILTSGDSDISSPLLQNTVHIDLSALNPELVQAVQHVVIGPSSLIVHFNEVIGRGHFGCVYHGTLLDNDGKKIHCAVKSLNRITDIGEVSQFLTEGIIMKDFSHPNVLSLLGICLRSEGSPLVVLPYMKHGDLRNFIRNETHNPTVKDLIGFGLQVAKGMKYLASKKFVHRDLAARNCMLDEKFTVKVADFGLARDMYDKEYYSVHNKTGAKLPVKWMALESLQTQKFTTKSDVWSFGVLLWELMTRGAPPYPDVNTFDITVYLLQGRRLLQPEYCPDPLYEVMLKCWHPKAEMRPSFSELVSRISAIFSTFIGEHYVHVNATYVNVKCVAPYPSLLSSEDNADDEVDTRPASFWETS

A word on the logP: it is the decadic logarithm of the partition coefficient of the neutral form, usually between octanol and water. One may read the IC50 as the midpoint of a concentration-inhibition curve. Turning to `CNc1ncnc(Oc2ccc(NC(=O)C3(C(=O)Nc4ccc(F)cc4)CC3)cc2F)c1/C=N/OC`, the logP in data set [1] (read-out: logP) was 3.52. In addition, the IC50 is more than 10 µM in data set [2], more than 10 µM in data set [3] and more than 1 µM in “cells”.
With `Nc1ncnc(Oc2ccc(NC(=O)C3(C(=O)Nc4ccc(F)cc4)CC3)cc2F)c1/C=N/OCCCO`, the logP in data set [1] (read-out: logP) came out at 2.67. Besides, the IC50 in the data set on HUVEC worked out at 0.21 µM; in “cells” it was 0.11 µM.
Regarding `Nc1ncnc(Oc2ccc(NC(=O)C3(C(=O)Nc4ccc(F)cc4)CC3)cc2F)c1/C=N/OCc1ccccc1`, the logP in data set [1] (read-out: logP) came to 4.45. Moreover, half-maximal inhibition in the data set “cells” (IC50) required 0.566 µM.
On to `N/N=C/c1c(N)ncnc1Oc1ccc(NC(=O)C2(C(=O)Nc3ccc(F)cc3)CC2)cc1F`, for which the lipophilicity (logP) in data set [1] (read-out: logP) is 2.25. Besides, the IC50 in “cells” was 0.765 µM.
The matching figures for `Nc1ncnc(Oc2ccc(NC(=O)C3(C(=O)Nc4ccc(F)cc4)CC3)cc2F)c1/C=N/OCCO`: 2.37 and 0.2 µM.
With `Nc1ncnc(Oc2ccc(NC(=O)C3(C(=O)Nc4ccc(F)cc4)CC3)cc2F)c1/C=N/OC1CCCC1`, in data set [1] (read-out: logP), the lipophilicity (logP) is 4.27. Moreover, 0.745 µM corresponded to half-maximal inhibition in “cells” (IC50).
For the compound `Nc1ncnc(Oc2ccc(NC(=O)C3(C(=O)Nc4ccc(F)cc4)CC3)cc2F)c1/C=N/OCC(=O)N1CCOCC1`, the logP in data set [1] (read-out: logP) was found to be 2.1. The IC50 in “cells” turned out to be 0.397 µM.
On the same counts, the results for `CC(O)CO/N=C/c1c(N)ncnc1Oc1ccc(NC(=O)C2(C(=O)Nc3ccc(F)cc3)CC2)cc1F` (centres undefined) are 2.75 and 0.258 µM.
For `Nc1ncnc(Oc2ccc(NC(=O)C3(C(=O)Nc4ccc(F)cc4)CC3)cc2F)c1/C=N/O`, the logP in data set [1] (read-out: logP) worked out at 2.62. Besides, the figures for the IC50 with HUVEC and in “cells” were 0.26 µM and 0.194 µM, respectively.
Turning to `CO/N=C/c1c(N)ncnc1Oc1ccc(NC(=O)C2(C(=O)Nc3ccc(F)cc3)CC2)cc1F`, the logP in data set [1] (read-out: logP) stood at 3.04. For the same compound, the values for the IC50 in the data set with HUVEC and in the data set “cells” were 0.32 µM and 0.166 µM, respectively.
For the compound `CC(C)(C)OC(=O)N/N=C/c1c(N)ncnc1Oc1ccc(NC(=O)C2(C(=O)Nc3ccc(F)cc3)CC2)cc1F`, the logP in data set [1] (read-out: logP) came out at 3.7. In the data set “cells”, this compound came in with an IC50 of 0.321 µM.
As to `CCCCO/N=C/c1c(N)ncnc1Oc1ccc(NC(=O)C2(C(=O)Nc3ccc(F)cc3)CC2)cc1F`, in data set [1] (read-out: logP), the logP came to 4.2. Moreover, in “cells”, the midpoint of inhibition, the IC50, lay at 0.626 µM.
`COCCCO/N=C/c1c(N)ncnc1Oc1ccc(NC(=O)C2(C(=O)Nc3ccc(F)cc3)CC2)cc1F`: the logP in data set [1] (read-out: logP) turned out to be 3.18. The compound also showed an IC50 in the data set “cells” of 0.243 µM.
As for `Nc1ncnc(Oc2ccc(NC(=O)C3(C(=O)Nc4ccc(F)cc4)CC3)cc2F)c1/C=N/OCCCN1CCOCC1`, the logP in data set [1] (read-out: logP) amounted to 2.98. Further, the concentration for half-maximal inhibition (IC50) in the data set with HUVEC came to 0.427 µM; in the data set “cells”, 0.186 µM.
Regarding `CCO/N=C/c1c(N)ncnc1Oc1ccc(NC(=O)C2(C(=O)Nc3ccc(F)cc3)CC2)cc1F`, the log partition coefficient (logP) in data set [1] (read-out: logP) was 3.41. In the data set “cells”, the IC50 stood at 0.215 µM.
With `Nc1ncnc(Oc2ccc(NC(=O)C3(C(=O)Nc4ccc(F)cc4)CC3)cc2F)c1/C=N/OCC(O)CN1CCOCC1` (centres undefined), in data set [1] (read-out: logP), the logP was 2.02. Besides, the IC50 in the data set on HUVEC came to 0.72 µM; in the data set “cells”, 0.158 µM.
The matching figures for `Nc1ncnc(Oc2ccc(NC(=O)C3(C(=O)Nc4ccc(F)cc4)CC3)cc2F)c1/C=N/OCCCN1CCCC1`: 3.82, 0.219 µM and 0.119 µM.
For the compound `C#CCO/N=C/c1c(N)ncnc1Oc1ccc(NC(=O)C2(C(=O)Nc3ccc(F)cc3)CC2)cc1F`, the logP in data set [1] (read-out: logP) was found to be 3.34. For the same compound, the IC50 in “cells” came to 0.521 µM.
On the same counts, the results for `CCOC(=O)CO/N=C/c1c(N)ncnc1Oc1ccc(NC(=O)C2(C(=O)Nc3ccc(F)cc3)CC2)cc1F` are 3.15 and more than 1 µM.
For the compound `Nc1ncnc(Oc2ccc(NC(=O)C3(C(=O)Nc4ccc(F)cc4)CC3)cc2F)c1/C=N/OCCN1CCCC1`, in data set [1] (read-out: logP), the lipophilicity (logP) turned out to be 3.5. The figures for the concentration for half-maximal inhibition (IC50) in the data set with HUVEC and in “cells” were 0.168 µM and 0.162 µM, respectively.
With `Nc1ncnc(Oc2ccc(NC(=O)C3(C(=O)Nc4ccc(F)cc4)CC3)cc2F)c1/C=N/OC1CCCCC1`, the logP in data set [1] (read-out: logP) is 4.69. The IC50 in “cells” amounted to 0.879 µM.
Take `CN(C)CCCO/N=C/c1c(N)ncnc1Oc1ccc(NC(=O)C2(C(=O)Nc3ccc(F)cc3)CC2)cc1F`: the logP in data set [1] (read-out: logP) is 3.23. The IC50 in the data set on HUVEC stood at 0.11 µM; in the data set “cells” it was 0.089 µM.
Turning to `C=CCO/N=C/c1c(N)ncnc1Oc1ccc(NC(=O)C2(C(=O)Nc3ccc(F)cc3)CC2)cc1F`, the logP in data set [1] (read-out: logP) was 3.65. This compound also yielded a concentration for half-maximal inhibition (IC50) in the data set “cells” of 0.619 µM.
As for `CO/N=C/c1c(N)ncnc1Oc1ccc2[nH]ccc2c1`, the IC50 in data set [4] turned out to be 0.146 µM.
As for `COc1cc2nccc(Oc3ccc(NC(=O)C4(C(=O)Nc5ccc(F)cc5)CC4)cc3)c2cc1OC` [CABOZANTINIB], the logP in data set [1] was 4.28.
In the case of `COc1cc2c(Oc3ccc(NC(=O)C4(C(=O)Nc5ccc(F)cc5)CC4)cc3F)ccnc2cc1OCCCN1CCOCC1` [FORETINIB], the logP in data set [1] (read-out: logP) stood at 4.28.

The record behind these values is ChEMBL document CHEMBL3813593, “Design, synthesis and biological evaluation of 4-aminopyrimidine-5-cabaldehyde oximes as dual inhibitors of c-Met and VEGFR-2” (Bioorg Med Chem, 2016).
